# Patent US6440468B1, “Method for obtaining apolar and polar extracts of curcuma and applications thereof” (A.S.A.C. Pharmaceutical International, A.I.E., priority 1994, dated 2002)
# Assay: Thermal stability of curcuminoids in the apolar fraction
# Assay type: physicochemical
# Conditions: stabilized as of 24-48 hours of exposure
# Procedure: Initially, a greater degradation is produced which is stabilized as of 24-48 hours of exposure. Degradation is kept at 2% for temperatures lower than 50° C. and at 4% at 80° C.
compound,measurement,setting,value
"COc1cc(/C=C/C(=O)CC(=O)/C=C/c2ccc(O)c(OC)c2)ccc1O [curcumin, curcumin (dipheruloylmethane)]",thermal degradation of curcuminoids,80° C,4%
same,thermal degradation of curcuminoids,temperatures lower than 50° C,2%
